The assay deals with T1, human recombinant ENPP1 enzymes (Homo sapiens, UniProt P22413).
T1 construct: purchased R & D systems
T1 sequence (P22413 1-925): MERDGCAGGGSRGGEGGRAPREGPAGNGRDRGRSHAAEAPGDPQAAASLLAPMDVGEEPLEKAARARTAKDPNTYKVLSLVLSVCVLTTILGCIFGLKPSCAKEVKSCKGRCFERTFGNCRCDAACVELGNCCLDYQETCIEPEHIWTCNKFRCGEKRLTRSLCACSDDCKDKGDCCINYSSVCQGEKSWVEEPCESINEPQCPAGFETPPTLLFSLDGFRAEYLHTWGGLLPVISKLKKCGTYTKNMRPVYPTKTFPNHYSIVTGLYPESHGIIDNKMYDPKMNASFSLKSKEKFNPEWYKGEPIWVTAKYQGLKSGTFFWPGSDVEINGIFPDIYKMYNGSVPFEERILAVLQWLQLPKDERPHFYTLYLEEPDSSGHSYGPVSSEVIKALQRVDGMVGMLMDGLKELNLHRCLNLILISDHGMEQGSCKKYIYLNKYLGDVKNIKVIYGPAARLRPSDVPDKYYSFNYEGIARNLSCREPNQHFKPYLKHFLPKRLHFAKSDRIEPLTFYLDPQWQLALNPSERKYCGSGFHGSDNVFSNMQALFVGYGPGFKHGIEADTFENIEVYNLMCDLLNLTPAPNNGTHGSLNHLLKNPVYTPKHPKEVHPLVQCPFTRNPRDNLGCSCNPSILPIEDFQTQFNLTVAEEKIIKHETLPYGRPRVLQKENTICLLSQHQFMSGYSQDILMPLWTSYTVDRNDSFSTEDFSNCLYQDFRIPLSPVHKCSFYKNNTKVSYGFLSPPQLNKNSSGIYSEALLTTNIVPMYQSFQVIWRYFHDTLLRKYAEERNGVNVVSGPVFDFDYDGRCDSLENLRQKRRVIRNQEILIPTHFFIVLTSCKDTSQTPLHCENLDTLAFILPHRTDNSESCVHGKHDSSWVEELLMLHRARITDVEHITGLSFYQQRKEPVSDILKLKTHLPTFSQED
Put plainly: ENPP1 Enzyme Assay with cGAMP Substrate (AMP-Glo). To be noted: human recombinant ENPP1 3 ng/reaction, cGAMP 5 μM, 37° C. 90 minutes, average of two or more tests; read-out: Enzymatic activity IC50. In kind it is biochemical. On the procedure:
ENPP1 hydrolyzes nucleotides or nucleotide derivatives to produce nucleoside-5′-monophosphate and pyrophosphate. In addition, ENPP1 hydrolyzes 2′,3′-cGAMP to produce 5′-adenosine monophosphate (AMP) and 5′-guanosine monophosphate (GMP). AMP produced from the reaction is measured using the AMP-Glo® kit (Promega). The AMP-Glo® kit contains two reagents. The first reagent terminates the AMP-producing enzymatic reaction, removes ATP and converts the produced AMP into ADP. The second reagent converts ADP to ATP which is used to generate luminescence in the luciferase reaction. The amount of luminescence measured is proportional to the amount of AMP produced by ENPP1.
The final reaction mixture contains 50 mM Tris (pH 8.5) buffer, 250 mM NaCl, 0.5 mM CaCl2), 1 μM ZnCl2, 5% glycerol and 1% DMSO. Serially diluted ENPP1 inhibitors (typically in the range of 10 μM to 0.5 nM) were pre-stored with human recombinant ENPP1 enzymes (R & D systems) at 3 ng/reaction and room temperature (RT) for 5 to 10 minutes. The reaction was initiated by addition of cGAMP (at a final concentration of 5 μM) and reacted at 37° C. for 90 minutes. At the end of the reaction, 10 μl of the AMP-Glo first reagent was added to stop the reaction and the result was stored at room temperature for 1 hour. After storage, 20 μl of an AMP detection solution (a mixture of AMP-Glo II reagent and Kinase-Glo at a ratio of 1:100) was added and stored at room temperature for 1 hour. Luminescence signals were measured using a Victor® plate reader (Perkin Elmer). The maximal activity control (containing enzymes and substrates in the presence of 1% DMSO; MAX) and the minimal activity control (containing substrates and 1% DMSO; MIN) were evaluated simultaneously. In each experiment, serially diluted reference ENPP1 inhibitors were tested as well. IC50, indicating % residual activity versus compound concentration was determined by fitting inhibition curves using the 3-parameter analysis of GraphPad Prism® software. Serially diluted samples of one compound were tested two or more times and an average IC50 of each compound was calculated.

Each structure is given as a SMILES string. pIC50: −log10 of the molar value. Counter-ions that a name gives are not always drawn.

Data on 29 compounds can be found in patent US20240140944A1, “NOVEL NAPHTHYRIDINONE DERIVATIVE HAVING INHIBITORY ACTIVITY AGAINST ECTONUCLEOTIDE PYROPHOSPHATASE-PHOSPHODIESTERASE AND USE THEREOF” (TXINNO BIOSCIENCE INC., priority 2020, published 2024).

The term pIC50 denotes the negative decadic logarithm of the IC50, by convention in mol/L. On to `NS(=O)(=O)Nc1cccc(Nc2ccnc3[nH]c(=O)ccc23)c1` [Example 88, N-(3-((7-oxo-7,8-dihydro-1,8-naphthyridin-4-yl)amino)phenyl)sulfamide dihydrochloride], for which the pIC50 was greater than 6.00.
The figure for `CC(C)(C)OC(=O)NCc1ccc(-c2ccnc3[nH]c(=O)ccc23)cc1` [Example 3, tert-butyl(4-(7-oxo-7,8-dihydro-1,8-naphthyridin-4-yl)benzyl)carbamate] is 5.00 to 6.00; for `O=c1ccc2c(-c3ccc4c(c3)CNC4)ccnc2[nH]1` [Example 26, 5-(isoindolin-5-yl)-1,8-naphthyridin-2(1H)-one hydrochloride] it is greater than 6.00.
In the case of `Cn1c(=O)ccc2c(N3CCC(CNS(N)(=O)=O)CC3)ccnc21` [Example 128, N-((1-(8-methyl-7-oxo-7,8-dihydro-1,8-naphthyridin-4-yl)piperidin-4-yl)methyl)sulfamide], the pIC50 was greater than 6.00.
For `NCc1ccc(Nc2ccnc3[nH]c(=O)ccc23)cc1` [Example 82, 5-((4-(aminomethyl)phenyl)amino)-1,8-naphthyridin-2(1H)-one dihydrochloride], the pIC50 is greater than 6.00.
With `C[C@@H](NS(N)(=O)=O)c1ccc(-c2ccnc3[nH]c(=O)ccc23)cc1` [Example 46, (R)-(N-(1-(4-(7-oxo-7,8-dihydro-1,8-naphthyridin-4-yl)phenyl)ethyl)sulfamide hydrochloride], the negative logarithm of the IC50 (pIC50) was greater than 6.00.
As to `CC(C)N(Cc1ccc(-c2ccnc3[nH]c(=O)ccc23)c(F)c1)S(N)(=O)=O` [Example 57, N-(3-fluoro-4-(7-oxo-7,8-dihydro-1,8-naphthyridin-4-yl)benzyl)-N-isopropyl)sulfamide hydrochloride], the pIC50 was less than 5.00.
`NS(=O)(=O)N(Cc1ccc(Nc2ccnc3[nH]c(=O)ccc23)cc1)C1CC1` [Example 99, N-cyclopropyl-N-(4-((7-oxo-7,8-dihydro-1,8-naphthyridin-4-yl)amino)benzyl)sulfamide dihydrochloride]: the pIC50 is 5.00 to 6.00.
For the compound `O=c1ccc2c(-c3ccc4c(c3)CNCC4)ccnc2[nH]1` [Example 27, 5-(1,2,3,4-tetrahydroisoquinolin-7-yl)-1,8-naphthyridin-2(1H)-one hydrochloride], the pIC50 was 5.00 to 6.00.
As to `Cn1c(=O)ccc2c(N3CCC(CN)CC3)ccnc21` [Example 118, 5-(4-(aminomethyl)piperidin-1-yl)-1-methyl-1,8-naphthyridin-2(1H)-one hydrochloride], the pIC50 is less than 5.00.
The figure for `NCc1cccc(Nc2ccnc3[nH]c(=O)ccc23)c1` [Example 77, 5-((3-aminomethyl)phenyl)amino)-1,8-naphthyridin-2(1H)-one dihydrochloride] is greater than 6.00; for `NCc1cc(Nc2ccnc3[nH]c(=O)ccc23)ccc1F` [Example 78, 5-((3-aminomethyl)-4-fluorophenyl)amino)-1,8-naphthyridin-2(1H)-one dihydrochloride] it is greater than 6.00; for `O=c1ccc2c(-c3ccc(CNS(=O)(=O)c4cccs4)cc3)ccnc2[nH]1` [Example 70, N-(4-(7-oxo-7,8-dihydro-1,8-naphthyridin-4-yl)benzyl)thiophene-2-sulfonamide] it is greater than 6.00.
As for `C[C@@H](NS(N)(=O)=O)c1ccc(-c2ccnc3[nH]c(=O)ccc23)cc1F` [Example 48, (R)-(N-(1-(2-fluoro-4-(7-oxo-7,8-dihydro-1,8-naphthyridin-4-yl)phenyl)ethyl)sulfamide hydrochloride], the pIC50 is greater than 6.00.
Turning to `C[C@H](NS(N)(=O)=O)c1ccc(-c2ccnc3[nH]c(=O)ccc23)cc1` [Example 47, (S)-(N-(1-(4-(7-oxo-7,8-dihydro-1,8-naphthyridin-4-yl)phenyl)ethyl)sulfamide hydrochloride], the pIC50 is greater than 6.00.
As to `CN[C@@H](C)c1ccc(-c2ccnc3[nH]c(=O)ccc23)cc1` [Example 18, (S)-5-(4-(1-(methylaminoethyl)phenyl)-1,8-naphthyridin-2(1H)-one hydrochloride], the pIC50 is greater than 6.00.
For the compound `O=c1ccc2c(Nc3ccc4c(c3)CNC4)ccnc2[nH]1` [Example 84, dihydrochloride], the pIC50 was greater than 6.00.
As for `NS(=O)(=O)N1CCc2cc(Nc3ccnc4[nH]c(=O)ccc34)ccc2C1` [Example 104, dihydrochloride], the pIC50 was 5.00 to 6.00.
As to `O=c1ccc2c(Nc3ccc4c(c3)CNCCC4)ccnc2[nH]1` [Example 87, 5-((2,3,4,5-tetrahydro-1H-benzo[c]azepin-8-yl)amino)-1,8-naphthyridin-2(1H)-one dihydrochloride], the pIC50 was less than 5.00.
Consider `C[C@H](c1ccc(-c2ccnc3[nH]c(=O)ccc23)cc1)N(C1CC1)S(N)(=O)=O` [Example 60, (R)-(N-cyclopropyl-N-(1-(4-(7-oxo-7,8-dihydro-1,8-naphthyridin-4-yl)phenyl)ethyl)sulfamide hydrochloride], for which the pIC50 is 5.00 to 6.00.
The same measure for `NS(=O)(=O)NC1Cc2ccc(Nc3ccnc4[nH]c(=O)ccc34)cc2C1` (centres unmarked) [Example 107, N-(5-((7-oxo-7,8-dihydro-1,8-naphthyridin-4-yl)amino)-2,3-dihydro-1H-inden-2-yl)sulfamide dihydrochloride]: greater than 6.00; for `CCN(Cc1ccc(-c2ccnc3[nH]c(=O)ccc23)cc1)S(N)(=O)=O` [Example 51, N-ethyl-N-(4-(7-oxo-7,8-dihydro-1,8-naphthyridin-4-yl)benzyl)sulfamide hydrochloride]: greater than 6.00.
Take `NS(=O)(=O)N1Cc2ccc(Nc3ccnc4[nH]c(=O)ccc34)cc2C1` [Example 101, 5-((7-oxo-7,8-dihydro-1,8-naphthyridin-4-yl)amino)isoindolin-2-yl)sulfamide dihydrochloride]: the negative-log IC50 (pIC50) was greater than 6.00.
The same measure for `NS(=O)(=O)N1CCCc2ccc(Nc3ccnc4[nH]c(=O)ccc34)cc2C1` [Example 103, (8-((7-oxo-7,8-dihydro-1,8-naphthyridin-4-yl)amino)-1,3,4,5-tetrahydro-2 (1H)-benzo[c]azepin-2-yl)sulfamide dihydrochloride]: 5.00 to 6.00; for `NS(=O)(=O)NCc1cccc(Nc2ccnc3[nH]c(=O)ccc23)c1` [Example 89, N-(3-((7-oxo-7,8-dihydro-1,8-naphthyridin-4-yl)amino)benzyl)sulfamide dihydrochloride]: greater than 6.00.
`NCCC1CCN(c2ccnc3[nH]c(=O)ccc23)CC1` [Example 115, 5-(4-(2-aminoethyl)piperidin-1-yl)-1,8-naphthyridin-2(1H)-one hydrochloride]: the pIC50 is greater than 6.00.
Turning to `Cc1ccc(S(=O)(=O)NCc2cccc(-c3ccnc4c3CCC(=O)N4)c2)cc1` [Example 147, 4-methyl-N-(3-(7-oxo-5,6,7,8-tetrahydro-1,8-naphthyridin-4-yl)benzyl)benzenesulfonamide], the pIC50 is greater than 6.00.
The figure for `NS(=O)(=O)NC1CCN(c2ccnc3[nH]c(=O)ccc23)CC1` [Example 123, N-(1-(7-oxo-7,8-dihydro-1,8-naphthyridin-4-yl)piperidin-4-yl)sulfamide] is greater than 6.00.
Consider `NS(=O)(=O)NCc1cc(Nc2ccnc3[nH]c(=O)ccc23)ccc1F` [Example 90, N-(2-fluoro-5((7-oxo-7,8-dihydro-1,8-naphthyridin-4-yl)amino)benzyl)sulfamide dihydrochloride], for which the pIC50 was greater than 6.00.
